# Experiments:
# [1] = test system: iron-mediated neuronal damage; conditions: likely by reduced phosphorylation of hemeoxygenase by ERK; cited from earlier work
# panel of 442 kinases = assay: kinase selectivity panel of 442 kinases; type: binding; conditions: 10 μM, 386 nonmutant
# EGFR = EGFR (Homo sapiens, UniProt P00533); assay: dissociation constant against EGFR; type: binding; conditions: read-out: Kd EGFR
# MEK1 = MEK1 (Homo sapiens, UniProt Q02750); assay: dissociation constant against MEK1; type: binding; conditions: read-out: Kd MEK1
# MEK1, sequence (Q02750 whole entry): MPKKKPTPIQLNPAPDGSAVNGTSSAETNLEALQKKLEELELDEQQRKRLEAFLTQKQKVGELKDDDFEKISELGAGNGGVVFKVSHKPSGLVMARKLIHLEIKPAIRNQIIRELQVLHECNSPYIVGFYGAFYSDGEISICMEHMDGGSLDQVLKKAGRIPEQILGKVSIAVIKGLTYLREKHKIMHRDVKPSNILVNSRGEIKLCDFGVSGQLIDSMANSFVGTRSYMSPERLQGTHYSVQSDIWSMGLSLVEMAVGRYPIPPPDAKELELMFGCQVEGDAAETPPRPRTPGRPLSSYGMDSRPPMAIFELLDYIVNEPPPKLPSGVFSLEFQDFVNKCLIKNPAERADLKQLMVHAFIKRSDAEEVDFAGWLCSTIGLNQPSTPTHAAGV
# EGFR, sequence (P00533 25-1210): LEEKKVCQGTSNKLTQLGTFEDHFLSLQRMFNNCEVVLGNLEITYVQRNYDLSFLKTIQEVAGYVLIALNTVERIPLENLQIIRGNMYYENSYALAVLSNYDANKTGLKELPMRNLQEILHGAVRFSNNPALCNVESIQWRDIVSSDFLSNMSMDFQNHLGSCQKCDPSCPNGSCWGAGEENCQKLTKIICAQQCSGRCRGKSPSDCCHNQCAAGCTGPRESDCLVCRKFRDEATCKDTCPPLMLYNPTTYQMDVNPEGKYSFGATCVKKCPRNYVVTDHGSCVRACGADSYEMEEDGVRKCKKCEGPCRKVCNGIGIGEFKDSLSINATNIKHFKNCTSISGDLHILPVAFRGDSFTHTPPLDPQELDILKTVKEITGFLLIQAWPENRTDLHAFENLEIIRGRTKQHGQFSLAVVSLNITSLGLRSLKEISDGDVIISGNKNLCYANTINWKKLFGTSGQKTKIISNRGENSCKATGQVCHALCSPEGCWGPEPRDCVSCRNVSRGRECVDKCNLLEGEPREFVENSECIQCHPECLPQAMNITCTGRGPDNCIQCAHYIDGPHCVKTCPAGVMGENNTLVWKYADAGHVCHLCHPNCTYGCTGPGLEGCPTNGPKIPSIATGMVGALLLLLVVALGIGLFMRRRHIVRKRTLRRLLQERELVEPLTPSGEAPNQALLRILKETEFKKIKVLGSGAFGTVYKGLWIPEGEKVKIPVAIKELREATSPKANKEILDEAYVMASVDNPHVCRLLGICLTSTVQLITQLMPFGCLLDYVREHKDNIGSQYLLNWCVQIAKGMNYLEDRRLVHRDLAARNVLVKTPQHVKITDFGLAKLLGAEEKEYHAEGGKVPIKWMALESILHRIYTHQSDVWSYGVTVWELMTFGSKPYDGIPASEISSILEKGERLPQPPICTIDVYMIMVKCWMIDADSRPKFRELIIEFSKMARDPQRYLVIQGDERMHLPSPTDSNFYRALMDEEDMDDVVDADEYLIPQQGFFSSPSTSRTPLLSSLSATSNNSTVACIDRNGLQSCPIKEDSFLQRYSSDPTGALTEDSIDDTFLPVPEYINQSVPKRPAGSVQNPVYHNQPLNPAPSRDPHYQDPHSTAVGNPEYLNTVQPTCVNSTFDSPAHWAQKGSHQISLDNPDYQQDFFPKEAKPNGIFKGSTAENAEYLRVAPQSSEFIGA
compound,measurement,setting,value
Nc1[nH]nc2nnc(-c3c(-c4ccccc4)nn4ccccc34)cc12 [FR180204],effect on iron-mediated neuronal damage caused by hemoglobin breakdown,[1],can reduce iron-mediated neuronal damage
same,number of nonmutant kinases with >90% inhibition of kinase activity,panel of 442 kinases,29/386
same,number of nonmutant kinases with >99% inhibition of kinase activity,panel of 442 kinases,12 out of 386
same,Kd,EGFR,1.2 µM
same,Kd,MEK1,8.7 µM
